According to patent US20230149507A1, “TREATMENT OF ALT CANCERS” (INSTITUTO DE MEDICINA MOLECULAR JOÃO LOBO ANTUNES, priority 2019, published 2023):

Tests used:
U-2 OS ALT cells = test: Metaphase-TIFs after FANCM knockdown with siRNA; assay type: cell-based, human; details: compared to the scrambled control; siRNA 30 nM, 72 h
Text: (§1) (a) Representative images of telomere (green) and γ-H2AX (red) colocalizations on metaphase spreads (meta-TIFs) in U-2 OS cells with or without FANCM depletion (left panel). Meta-TIFs are indicated by white arrows. Scale bars are 5 μm. Quantitation of TIFs (right panel). Scatterplot bars represent the mean±SEM. Out of 3 experiments, n≥81 metaphases scored per treatment, **p<0.005, Mann-Whitney test. (b) Native and denatured TRF analysis of U-2 OS cells with or without FANCM depletion. Colored arrows correspond to telomeric DNA species depicted in panel c. (c) Schematic of migration patterns for indicated telomeric species separated by two-dimensional gel electrophoresis (top panel). Two-dimensional TRF analysis of U-2 OS cells with or without FANCM depletion, hybridized under native and denatured conditions to detect the telomeric C-strand and G-strand (left and right panels). Colored arrows correspond to telomeric DNA species depicted in schematic. (d) Representative dot blot and quantitation of C-circle assays of U-2 OS cells with or without FANCM depletion. C-circle levels were normalized to the mean of scrambled control. Error bars represent the mean±SEM from n=3 experiments, *p<0.05, **p<0.005, Student's t-test. […] Out of 3 experiments, n≥150 cells scored per treatment, *p<0.05, **p<0.005, Mann-Whitney test. […]

U-2 OS cells = test: Terminal restriction fragment (TRF) analysis after FANCM siRNA; assay type: cell-based, human; details: FANCM depletion, siRNA 30 nM
Text: as §1

U2OS and HeLa cells = test: Indirect IF with anti-BLM and anti-TRF2 antibodies, camptothecin treatment; assay type: cell-based, human
Text: HeLa cervical cancer, HT1080 fibrosarcoma, and HEK293 embryonic kidney cells were purchased from ATCC. U2OS osteosarcoma cells were a kind gift from M. Lopes (IMCR, Zurich, Switzerland). HuO9, Saos2 and HOS osteosarcoma cells were a kind gift from B. Fuchs (Balgrist University Hospital, Zurich, Switzerland). WI-38 VA13 in vitro SV40-transformed lung fibroblasts were a kind gift from A. Londoño-Vallejo (CNRS, Paris, France). SKNAS neuroblastoma cells were a kind gift from O. Shakhova (University Hospital Zurich, Switzerland). HeLa, HT1080, HEK293, U2OS, and WI-38 VA13 cells were cultured in high glucose DMEM, GlutaMAX (Thermo Fisher Scientific) supplemented with 10% tetracycline-free fetal bovine serum (Pan BioTech) and 100 U/ml penicillin-streptomycin (Thermo Fisher Scientific). HuO9, Saos2, HOS and SKNAS cells were cultured in high glucose DMEM/F12, GlutaMAX (Thermo Fisher Scientific), supplemented with 10% tetracycline-free fetal bovine serum (Pan BioTech), 100 U/ml penicillin-streptomycin (Thermo Fisher Scientific) and non-essential amino acids (Thermo Fisher Scientific). Mycoplasma contaminations were tested using the VenorGeM Mycoplasma PCR Detection Kit (Minerva Biolabs) according to the manufacturer's instructions. […]

[1] = molecular target: T1, BLM-TOP3A-RMI (BTR) complex (human, UniProt P54132 1-1417; Q13472 1-1001; Q9H9A7 1-625; Q96E14 2-147, limits assumed); test: competition co-IP: peptide added to HEK-293 Flag-FANCM lysate, Flag IP, TOP3A immunoblot
T1 construct: Endogenous complex in cell lysates (BLM, TOP3A, RMI1, RMI2); In the co-IPs it is read out by TOP3A and/or RMI1 immunoblot
Experimental: For co-IP experiments involved the ER-inducible system, cells were lysed in IP buffer (20 mM Tris-HCl pH 7.5, 100 mM NaCl, 10% (v/v) glycerol, 0.5 mM EDTA, 1 mM DTT) supplemented with 1× mammalian protease inhibitor cocktail (Sigma Aldrich) and 50 U/ml Benzonase (Novagen) for 2 h at 4° C., with or without MM2 peptide variants (Mimotopes). Following lysis, NaCl concentration was increased to 250 mM, then the lysate cleared at 16,000×g for 15 mins. Supernatant was then mixed with 1 μg of α-FANCM (Abcam) or α-ER (Santa Cruz Biotechnology) and 20 μl protein G sepharose (GE Healthcare), or using α-Flag M2 agarose (Sigma Aldrich). Following 3 h of mixing at 4° C., beads were washed 4× with IP buffer, and 1× with 50 mM NH₄(CO₃)₂, 0.5 mM EDTA, then eluted with 500 mM NH₄OH (pH 11.0), 0.5 mM EDTA. Samples were then lyophilized and resuspended in 1×LDS loading buffer (Life Technologies) prior to immunoblotting.
To explore the possibility of specifically targeting ALT cell viability through FANCM, two approaches to disrupt the FANCM-BTR complex were adopted. […] To investigate the effects of FANCM-BTR complex disruption in ALT cells, the MM2 peptide was rendered functionally dependent on tamoxifen by fusion to the C-terminus of the estrogen receptor (MM2-ER) (FIG. 11a). […]

T1 sequence (P54132 whole entry, chain 1 of 4): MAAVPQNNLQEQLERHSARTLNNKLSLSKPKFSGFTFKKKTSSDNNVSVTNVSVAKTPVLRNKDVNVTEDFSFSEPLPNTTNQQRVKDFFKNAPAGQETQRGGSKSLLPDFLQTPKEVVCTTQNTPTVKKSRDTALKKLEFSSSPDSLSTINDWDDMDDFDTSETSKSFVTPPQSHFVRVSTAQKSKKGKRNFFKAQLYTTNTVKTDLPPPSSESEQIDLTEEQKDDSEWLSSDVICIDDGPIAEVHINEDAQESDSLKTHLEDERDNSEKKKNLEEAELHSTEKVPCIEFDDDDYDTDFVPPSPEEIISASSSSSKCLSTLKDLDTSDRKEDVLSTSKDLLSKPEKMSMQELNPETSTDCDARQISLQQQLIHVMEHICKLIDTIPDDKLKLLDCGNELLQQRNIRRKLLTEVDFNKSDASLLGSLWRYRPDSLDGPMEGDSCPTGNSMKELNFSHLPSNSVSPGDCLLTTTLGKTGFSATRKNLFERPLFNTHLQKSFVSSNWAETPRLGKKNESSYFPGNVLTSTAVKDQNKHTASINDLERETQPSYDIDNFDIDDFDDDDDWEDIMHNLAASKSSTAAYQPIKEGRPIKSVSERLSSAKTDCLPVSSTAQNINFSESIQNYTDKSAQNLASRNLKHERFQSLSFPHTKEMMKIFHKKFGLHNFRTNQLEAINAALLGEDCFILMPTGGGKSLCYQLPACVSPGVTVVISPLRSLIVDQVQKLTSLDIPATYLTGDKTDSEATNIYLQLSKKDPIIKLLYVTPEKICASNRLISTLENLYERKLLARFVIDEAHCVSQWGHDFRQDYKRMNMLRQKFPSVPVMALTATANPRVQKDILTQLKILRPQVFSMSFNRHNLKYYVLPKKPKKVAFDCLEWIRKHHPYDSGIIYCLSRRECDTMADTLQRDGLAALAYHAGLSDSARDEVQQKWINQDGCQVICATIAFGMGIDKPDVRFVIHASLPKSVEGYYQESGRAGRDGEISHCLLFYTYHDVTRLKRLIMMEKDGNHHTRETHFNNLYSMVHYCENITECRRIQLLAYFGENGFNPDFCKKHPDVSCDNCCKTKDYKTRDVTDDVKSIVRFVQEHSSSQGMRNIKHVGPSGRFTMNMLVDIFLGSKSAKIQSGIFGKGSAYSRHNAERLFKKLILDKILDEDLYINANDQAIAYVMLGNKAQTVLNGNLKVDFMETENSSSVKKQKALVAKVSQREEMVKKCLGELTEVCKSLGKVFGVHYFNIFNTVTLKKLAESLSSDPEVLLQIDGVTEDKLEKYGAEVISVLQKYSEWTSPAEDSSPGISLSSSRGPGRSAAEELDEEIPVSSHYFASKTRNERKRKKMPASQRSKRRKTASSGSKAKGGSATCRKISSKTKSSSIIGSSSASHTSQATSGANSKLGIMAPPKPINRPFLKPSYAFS
T1 sequence (Q13472 whole entry, chain 2 of 4): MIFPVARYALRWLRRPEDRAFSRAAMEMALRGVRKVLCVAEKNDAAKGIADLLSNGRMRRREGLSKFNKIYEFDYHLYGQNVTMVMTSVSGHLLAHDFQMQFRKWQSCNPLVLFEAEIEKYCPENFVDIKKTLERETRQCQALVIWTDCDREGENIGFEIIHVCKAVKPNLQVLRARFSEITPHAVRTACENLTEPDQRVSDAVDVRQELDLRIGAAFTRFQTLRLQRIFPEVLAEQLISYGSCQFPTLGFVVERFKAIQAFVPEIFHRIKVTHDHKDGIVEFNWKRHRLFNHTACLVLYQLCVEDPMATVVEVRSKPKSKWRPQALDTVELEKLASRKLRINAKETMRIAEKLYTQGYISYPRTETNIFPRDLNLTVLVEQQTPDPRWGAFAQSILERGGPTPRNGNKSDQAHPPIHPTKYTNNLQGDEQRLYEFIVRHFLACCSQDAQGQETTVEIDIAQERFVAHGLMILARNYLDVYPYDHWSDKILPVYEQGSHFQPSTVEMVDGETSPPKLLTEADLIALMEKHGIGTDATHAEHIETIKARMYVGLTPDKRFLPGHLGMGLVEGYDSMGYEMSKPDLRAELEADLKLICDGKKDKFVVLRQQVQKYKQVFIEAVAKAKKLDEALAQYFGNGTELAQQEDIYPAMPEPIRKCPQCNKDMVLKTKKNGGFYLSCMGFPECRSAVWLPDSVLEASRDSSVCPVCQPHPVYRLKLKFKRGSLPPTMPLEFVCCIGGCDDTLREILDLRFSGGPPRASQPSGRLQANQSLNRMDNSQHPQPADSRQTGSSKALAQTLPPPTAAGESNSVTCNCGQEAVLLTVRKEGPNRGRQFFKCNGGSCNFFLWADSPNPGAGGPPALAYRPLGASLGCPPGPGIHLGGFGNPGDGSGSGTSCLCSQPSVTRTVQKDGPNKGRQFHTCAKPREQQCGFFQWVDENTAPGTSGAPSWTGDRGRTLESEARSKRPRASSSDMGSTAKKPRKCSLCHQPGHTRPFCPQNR
T1 sequence (Q9H9A7 whole entry, chain 3 of 4): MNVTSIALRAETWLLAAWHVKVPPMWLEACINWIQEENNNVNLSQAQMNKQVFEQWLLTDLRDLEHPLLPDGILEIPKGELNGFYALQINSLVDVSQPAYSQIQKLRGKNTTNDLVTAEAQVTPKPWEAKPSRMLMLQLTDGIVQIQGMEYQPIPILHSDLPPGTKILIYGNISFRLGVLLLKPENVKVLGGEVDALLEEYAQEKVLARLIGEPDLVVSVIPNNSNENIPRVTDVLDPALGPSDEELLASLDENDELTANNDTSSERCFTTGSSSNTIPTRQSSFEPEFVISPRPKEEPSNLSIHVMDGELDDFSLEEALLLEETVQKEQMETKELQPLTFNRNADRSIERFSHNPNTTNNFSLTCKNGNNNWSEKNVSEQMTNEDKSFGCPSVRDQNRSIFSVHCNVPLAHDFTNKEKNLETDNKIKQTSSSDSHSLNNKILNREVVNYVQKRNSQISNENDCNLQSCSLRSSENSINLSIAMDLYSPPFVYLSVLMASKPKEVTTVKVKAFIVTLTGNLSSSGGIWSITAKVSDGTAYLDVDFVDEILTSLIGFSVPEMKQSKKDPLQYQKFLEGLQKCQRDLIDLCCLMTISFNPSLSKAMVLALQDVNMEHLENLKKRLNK
T1 sequence (Q96E14 2-147 limits assumed, chain 4 of 4): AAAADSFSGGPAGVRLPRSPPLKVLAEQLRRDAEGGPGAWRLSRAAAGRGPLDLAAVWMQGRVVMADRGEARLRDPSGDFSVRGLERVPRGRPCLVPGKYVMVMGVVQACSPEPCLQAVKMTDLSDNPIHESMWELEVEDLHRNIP

Molecule: siFANCM2: Silencer Select siRNA FANCM2 (s33621) (SEQ ID NO: 13) (GAACAUACAUCAGAUAGCA; listed as RNA, chemistry not given here)
- metaphase-TIFs (meta-TIFs) (U-2 OS ALT cells): significant increase in metaphase-TIFs
- G-rich overhang and low molecular weight ss C-rich telomeric DNA (native TRF) (U-2 OS cells): most marked effects

Molecule: CC[C@@]1(O)C(=O)OCc2c1cc1n(c2=O)Cc2cc3ccccc3nc2-1 [CPT, Camptothecin]
- BLM TIF frequencies (U2OS and HeLa cells; all samples): marginally affected TIF frequencies
- nuclear (non-telomeric) BLM foci (U2OS and HeLa cells; siCt-transfected U2OS and HeLa cells, 1 μM camptothecin for 3 hours): robust formation of nuclear (non-telomeric) BLM foci

Molecule: EDIFDCSRDLFSVTADLGACSPDSDDEILEHTSD (also called MM2-FF>AA mutant peptide) [mutant human FANCM MM2 peptide containing the FF>AA mutant]
- binding result [1]: no binding (tested: 1-50 µM)
